Reference: US7576094B2, “Spiro derivatives as lipoxygenase inhibitors” (Eli Lilly and Company, priority 2004, dated 2009)

How the values were obtained:
[1] = system: LTB4 production in human whole blood; experiment: Inhibition of LTB4 Production in Blood; type: cell-based; conditions: 1 h, 20 μM A23187, 60 minutes at 37° C., LTB4 in plasma by ELISA, read-out: protection against LTB4 at an EC50
Protocol: • Human whole blood (Na citrate) (Stanford Blood Center) • A23187, (Sigma, Cat# C-7522) • Leukotriene B4 EIA reagents (Cayman Chemical, Cat # 520111) • BWA4C (Sigma, Cat # B7559) Procedure Preparation of A23187:
A23187 was prepared as a 10 mM stock solution in DMSO (aliquots can be stored at −20° C.). On the day of the assay the stock solution was diluted as follows: 70 μL 10 mM stock added to 1.6 mL plasma to give a working concentration of 0.42 mM.
From a 30 mM stock solution in DMSO, test articles were diluted to a working concentration of 600 μM in PBS (i.e. 10 μL stock solution+490 μL PBS). This is the highest concentration (gives a final testing concentration of 30 μM). From this 600 μM solution test articles were serially diluted 1:3 in PBS to give a dose-response curve. 10 μL of each concentration of test article was then added to 4 wells of a 96-well plate (i.e. testing in quadruplicate). A positive control compound, BWA4C was used in every assay.
Human whole blood was added to the plates containing compounds (190 μL per well) and mixed well. The blood was incubated with compound at 37° C. for 15 minutes. Following this incubation, 10 μL of 0.42 mM A23187 was added to each well except the negative control wells to give a final calcium ionophore concentration of 20 μM. The plates were then incubated at 37° C. for 60 minutes. After the incubation period, plates were centrifuged for 15 min at 2000 g at 4° C. in sealed microplate buckets. Plasma was then removed for quantitation of LTB4 levels by ELISA.
LTB4 levels in the plasma were determined using a commercially available ELISA kit from Cayman Chemicals. The ELISA was run according to the manufacturer's instructions. The LTB4 levels in the vehicle control sample were then compared to those in which the test article had been added. From this a percent inhibition of LTB4 production by each concentration of test article was calculated and the IC50 was determined.

[2] = molecular target: T1, human recombinant 5-Lipoxygenase (Homo sapiens, UniProt P09917); experiment: 5-Lipoxygenase Enzyme Assay; type: biochemical; conditions: 70 μM arachidonic acid, 10 minute incubation at room temperature, FOX reagent, absorbance at 620 nm; read-out: inhibition of 5-Lipoxygenase with an IC50
T1 sequence (P09917 1-674): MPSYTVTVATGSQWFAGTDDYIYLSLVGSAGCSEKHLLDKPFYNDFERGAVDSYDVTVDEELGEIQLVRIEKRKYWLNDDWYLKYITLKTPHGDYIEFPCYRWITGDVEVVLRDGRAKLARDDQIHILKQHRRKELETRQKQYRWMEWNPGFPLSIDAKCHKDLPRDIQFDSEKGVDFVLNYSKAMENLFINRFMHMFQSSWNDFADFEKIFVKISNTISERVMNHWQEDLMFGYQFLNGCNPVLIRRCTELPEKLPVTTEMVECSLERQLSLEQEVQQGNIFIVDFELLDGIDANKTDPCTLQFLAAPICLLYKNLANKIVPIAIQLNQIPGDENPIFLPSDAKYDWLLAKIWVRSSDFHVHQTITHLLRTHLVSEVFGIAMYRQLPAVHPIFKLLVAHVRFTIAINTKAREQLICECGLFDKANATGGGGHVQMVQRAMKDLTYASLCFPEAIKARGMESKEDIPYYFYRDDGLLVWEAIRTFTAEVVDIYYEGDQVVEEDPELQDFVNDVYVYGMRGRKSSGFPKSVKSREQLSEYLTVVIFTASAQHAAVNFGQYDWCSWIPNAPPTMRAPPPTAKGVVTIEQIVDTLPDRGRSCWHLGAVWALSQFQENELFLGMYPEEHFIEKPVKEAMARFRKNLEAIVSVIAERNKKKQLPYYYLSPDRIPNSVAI
From the text: This procedure was used for measuring the enzymatic activity of human recombinant 5-Lipoxygenase using a colorimetric method based on the ferric oxidation of xylenol orange.
• 96 well flat bottom microfilter plates (VWR, Catalog # 62402-933 9295) • Lipoxygenase screening assay buffer (Cayman, Catalog # 760710) • Human recombinant 5-Lipoxygenase (Cayman, Catalog # 60402) • Arachidonic Acid (Sigma, Catalog # A3555) • Xylenol orange tetra sodium salt (Aldrich, Catalog # 227854) • Iron (II) sulfate heptahydrate (Sigma, Catalog # F7002) • Sulfuric acid (95-98%) [18 M] • Methanol Procedure
Human recombinant 5-Lipoxygenase (Cayman Cat # 60402) was used in this assay. The test compound and/or vehicle was added to 0.5 μL 5-Lipoxygenase in 50 mM Tris-HCl buffer, pH 7.4. The reaction was initiated by addition of 70 μM arachidonic acid in Tris-HCl buffer, pH 7.4, and terminated after a 10 minute incubation at room temperature by addition of FOX reagent (25 mM sulfuric acid, 100 μM xylenol orange, 100 μM iron (II) sulfate, methanol:water 9:1). The yellow color of acidified xylenol orange was converted to a blue color by the lipid hydroperoxide-mediated oxidation of Fe^2+ ions and the interaction of the resulting Fe^3+ ions with the dye. The complex was allowed to form during a 1 hour incubation at room temperature with shaking. Absorbance of the Fe^3+ complex was then measured at […] using a spectrophotometer.
Negative controls contained enzyme during the incubation step but substrate was not added until after the FOX reagent. Compounds were screened at 5 concentrations in triplicate starting at 10 μM

| Structure (SMILES) | EC50 [1] [nM] | IC50 [2] [nM] |
| --- | --- | --- |
| Cc1cc2c(c(C)c1O)C(O)C1(CCC1)CO2 (stereo not shown) [5,7-dimethyl-4H-spiro[chromene-3,1′-cyclobutane]-4,6-diol] | < 10000 | – |
| Cc1c(O)c(C)c2c(c1CO)OC1(CCC1)CC2 [8-(hydroxymethyl)-5,7-dimethyl-3,4-dihydrospiro[chromene-2,1′-cyclobutan]-6-ol] | < 10000 | – |
| Cc1c(O)c(C(C)C)cc2c1C(O)C1(CCC1)CO2 (stereo not shown) [7-isopropyl-5-methylspiro[chroman-3,1′-cyclobutane]-4,6-diol] | < 10000 | – |
| Cc1cc2c(c(C)c1O)C(O)CC1(CCC1)O2 (stereo not shown) [5,7-dimethyl-3,4-dihydrospiro[chromene-2,1′-cyclobutane]-4,6-diol] | < 10000 | – |
| CCc1c(O)c(C(C)C)cc2c1C(O)CC1(CCC1)O2 (stereo not shown) [5-ethyl-7-isopropylspiro[chroman-2,1′-cyclobutane]-4,6-diol] | < 10000 | – |
| CONCC1Cc2c(cc(C)c(O)c2C)OC12CCC2 (stereo not shown) [3-[(methoxyamino)methyl]-5,7-dimethyl-3,4-dihydrospiro-[chromene-2,1′-cyclobutan]-6-ol] | < 10000 | – |
| COC(=O)c1ccc(CN2c3cc(C)c(O)c(C)c3CCC23CCC3)cc1 [methyl 4-((6′-hydroxy-5′,7′-dimethyl-3′,4′-dihydro-1′H-spiro[cyclobutane-1,2′-quinoline]-1′-yl)methyl)benzoate] | – | < 300 |
| Cc1cc2c(c(C)c1O)C(N(C)O)CC1(CCC1)O2 (stereo not shown) [4-[hydroxy(methyl)amino]-5,7-dimethyl-3,4-dihydrospiro[chromene-2,1′-cyclobutan]-6-ol] | < 10000 | – |
| CC(=O)NC1CC2(CCC2)Oc2c(C)c(C)c(O)c(C)c21 (stereo not shown) [N-(6-hydroxy-5,7,8-trimethyl-3,4-dihydrospiro[chromene-2,1′-cyclobutan]-4-yl)acetamide] | – | < 300 |
| Cc1c(O)cc2c(c1C)N(c1ccc(O)cc1)CC1(CCC1)C2 [1′-(4-hydroxyphenyl)-7′,8′-dimethyl-2′,4′-dihydro-1′H-spiro[cyclobutane-1,3′-quinolin]-6′-ol] | – | < 300 |
| CONC1CC2(CCC2)Oc2c(C)c(C)c(O)c(C)c21 (stereo not shown) [4-(methoxyamino)-5,7,8-trimethyl-3,4-dihydrospiro[chromene-2,1′-cyclobutan]-6-ol] | – | < 300 |
| Cc1c(C)c2c(c(C)c1OC(=O)n1ccnc1)CCC1(CCC1)O2 [5,7,8-trimethyl-3,4-dihydrospiro[chromene-2,1′-cyclobutan]-6-yl 1H-imidazole-1-carboxylate] | – | < 300 |
| CCCc1ccc([S+](=O)([O-])NCCN2CC3(CCC3)Cc3cc(O)c(C)c(C)c32)cc1 [N-(2-(6′-hydroxy-7′,8′-dimethyl-2′,4′-dihydro-1′H-spiro[cyclobutane-1,3′-quinoline]-1′-yl)ethyl)-4-propylbenzenesulfonamide] | – | < 300 |
| CON(C)C1CC2(CCC2)Oc2cc(C)c(O)c(C)c21 (stereo not shown) [4-[methoxy(methyl)amino]-5,7-dimethyl-3,4-dihydrospiro[chromene-2,1′-cyclobutan]-6-ol] | – | < 300 |
| COC(=O)CN1CC2(CC2)Cc2cc(O)c(C)c(C)c21 [methyl 2-(6′-hydroxy-7′,8′-dimethyl-2′,4′-dihydro-1′H-spiro[cyclopropane-1,3′-quinoline]-1′-yl)acetate] | – | < 300 |

Further lines, results first:

| EC50 [1] [nM] | IC50 [2] [nM] | Structure (SMILES) |
| --- | --- | --- |
| < 10000 | < 300 | CCc1c(O)c(CC)c2c(c1CO)OC1(CCC1)CC2 [(Z)-5,7-diethyl-8-(hydroxymethyl)-3,4-dihydrospiro[chromene-2,1′-cyclobutan]-6-ol] |
| < 10000 | < 300 | Cc1ccc(S(=O)(=O)NCCN2CC3(CCC3)Cc3cc(O)c(C)c(C)c32)cc1 [N-(2-(6′-hydroxy-7′,8′-dimethyl-2′,4′-dihydro-1′H-spiro[cyclobutane-1,3′-quinoline]-1′-yl)ethyl)-4-methylbenzenesulfonamide] |
| < 10000 | < 300 | Cc1cc2c(c(C)c1O)CCC1(CCC1)N2Cc1ccc2ccccc2n1 [5′,7′-dimethyl-1′-(quinolin-2-ylmethyl)-3′,4′-dihydro-1′H-spiro[cyclobutane-1,2′-quinolin]-6′-ol] |
| < 10000 | < 300 | CCc1c(O)c(C)cc2c1C(NOC)CC1(CCC1)O2 (stereo not shown) [5-ethyl-4-(methoxyamino)-7-methyl-3,4-dihydrospiro[chromene-2,1′-cyclobutan]-6-ol] |
| < 10000 | < 300 | Cc1c(O)c(C(C)C)c(CO)c2c1CCC1(CCC1)O2 [8-(hydroxymethyl)-7-isopropyl-5-methylspiro[chroman-2,1′-cyclobutan]-6-ol] |
| < 10000 | < 300 | Cc1c(O)cc2c(c1C)N(c1ccc(N(C)C)nc1)CC1(CCC1)C2 [1′-(6-(dimethylamino)pyridin-3-yl)-7′,8′-dimethyl-2′,4′-dihydro-1′H-spiro[cyclobutane-1,3′-quinolin]-6′-ol] |
| < 10000 | < 300 | Cc1c(O)c(C(C)C)cc2c1C(O)CC1(CCC1)O2 (stereo not shown) [7-isopropyl-5-methylspiro[chroman-2,1′-cyclobutane]-4,6-diol] |
| < 10000 | < 300 | CCc1cc2c(c(CC)c1O)[C@@H](O)CC1(CCC1)O2 [(S)-5,7-diethylspiro[chroman-2,1′-cyclobutane]-4,6-diol] |
| < 10000 | < 300 | Cc1c(O)cc2c(c1C)N(CCCNC(=O)c1ccccc1)CC1(CCC1)C2 [N-(3-(6′-hydroxy-7′,8′-dimethyl-2′,4′-dihydro-1′H-spiro[cyclobutane-1,3′-quinoline]-1′-yl)propyl)benzamide] |
| < 10000 | < 300 | CCc1cc2c(c(C)c1O)C(NOC)CC1(CCC1)O2 (stereo not shown) [7-ethyl-4-(methoxyamino)-5-methyl-3,4-dihydrospiro[chromene-2,1′-cyclobutan]-6-ol] |
| < 10000 | < 300 | Cc1c(C)c2c(c(C)c1O)C(O)C1(CCC1)CO2 (stereo not shown) [5,7,8-trimethylspiro[chroman-3,1′-cyclobutane]-4,6-diol] |
| – | < 300 | CC(C)c1c(O)c(C(C)C)c2c(c1C=O)OC1(CCC1)CC2 [6-hydroxy-5,7-diisopropyl-3,4-dihydrospiro[chromene-2,1′-cyclobutane]-8-carbaldehyde] |
| – | < 300 | COCc1c(C)c(O)c(C)c2c1OC1(CCC1)CC2 [8-(methoxymethyl)-5,7-dimethyl-3,4-dihydrospiro[chromene-2,1′-cyclobutan]-6-ol] |
| – | < 300 | CCONC1CC2(CCC2)Oc2c(C)c(C)c(O)c(CC)c21 (stereo not shown) [4-(ethoxyamino)-5-ethyl-7,8-dimethyl-3,4-dihydrospiro[chromene-2,1′-cyclobutan]-6-ol] |
